# Laboratory results published in ChEMBL document CHEMBL1201862, “PubChem BioAssay data set” (2004).
#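 Tested at 5 concentrations; 48 h exposure; 96-well plates; endpoints linearly interpolated, else capped at highest concentration. GI50 = concentration required for 50% inhibition of growth.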 Calls of active or inactive are those of the source. Cut-off read from the data, not from the text of the source: active = GI50 up to about 1.1 µM and inactive = higher.
# Key:
# Assay in all cases: NCI tumour cell line growth inhibition, 48 h
# KM12 = system: KM12
# EKVX = system: EKVX
# SNB-19 = system: SNB-19
# NCI-H226 = system: NCI-H226
# CAKI-1 = system: CAKI-1
# M14 = system: M14
# HL-60 = system: HL-60
# T47D = system: T47D
# SK-MEL-2 = system: SK-MEL-2
# A498 = system: A498
# HT-29 = system: HT-29
# MOLT-4 = system: MOLT-4
# MDA-MB-231 = system: MDA-MB-231
# SW-620 = system: SW-620
# MDA-MB-435 = system: MDA-MB-435
# OVCAR-3 = system: OVCAR-3
# SK-MEL-5 = system: SK-MEL-5
# SK-MEL-28 = system: SK-MEL-28
# UACC-257 = system: UACC-257
# HOP-92 = system: HOP-92
# OVCAR-4 = system: OVCAR-4
# HCT-15 = system: HCT-15
# UACC-62 = system: UACC-62
# K562 = system: K562
# HOP-62 = system: HOP-62
# A549 = system: A549
# 786-0 = system: 786-0
# OVCAR-8 = system: OVCAR-8
# NCI-H460 = system: NCI-H460
# RPMI-8226 = system: RPMI-8226
# PC-3 = system: PC-3
# SF-539 = system: SF-539
# SN12C = system: SN12C
# UO-31 = system: UO-31
# Malme-3M = system: Malme-3M
# RXF 393 = system: RXF 393
# SF-295 = system: SF-295
# CCRF-CEM = system: CCRF-CEM
# SR = system: SR
# LOX IMVI = system: LOX IMVI
# HCC 2998 = system: HCC 2998
# COLO 205 = system: COLO 205
# NCI/ADR-RES = system: NCI/ADR-RES
# IGROV-1 = system: IGROV-1
# HCT-116 = system: HCT-116
# BT-549 = system: BT-549
# U-251 = system: U-251
# MCF7 = system: MCF7
# OVCAR-5 = system: OVCAR-5
# NCI-H23 = system: NCI-H23
# SK-OV-3 = system: SK-OV-3
# TK-10 = system: TK-10
# NCI-H522 = system: NCI-H522
# SF-268 = system: SF-268
# DU-145 = system: DU-145
# MDA-N = system: MDA-N
# SNB-75 = system: SNB-75
# ACHN = system: ACHN
# Hs-578T = system: Hs-578T
compound,measurement,setting,value
CC(C)OC(=O)c1cc(NC(=S)OC(C)C)ccc1Cl,GI50,KM12,13.8 µM (inactive)
same,GI50,EKVX,7.8 µM (inactive)
same,GI50,SNB-19,27 µM (inactive)
same,GI50,NCI-H226,18.3 µM (inactive)
same,GI50,CAKI-1,15.1 µM (inactive)
same,GI50,M14,35.6 µM (inactive)
same,GI50,HL-60,16.3 µM (inactive)
same,GI50,T47D,23 µM (inactive)
same,GI50,SK-MEL-2,22.4 µM (inactive)
same,GI50,A498,25.9 µM (inactive)
same,GI50,HT-29,16.5 µM (inactive)
same,GI50,MOLT-4,11.9 µM (inactive)
same,GI50,MDA-MB-231,15.3 µM (inactive)
same,GI50,SW-620,28.4 µM (inactive)
same,GI50,MDA-MB-435,17.1 µM (inactive)
same,GI50,OVCAR-3,25.6 µM (inactive)
same,GI50,SK-MEL-5,17.3 µM (inactive)
same,GI50,SK-MEL-28,28.3 µM (inactive)
same,GI50,UACC-257,21.1 µM (inactive)
same,GI50,HOP-92,18.4 µM (inactive)
same,GI50,OVCAR-4,23.9 µM (inactive)
same,GI50,HCT-15,21.6 µM
same,GI50,UACC-62,16.1 µM (inactive)
same,GI50,K562,30.4 µM (inactive)
same,GI50,HOP-62,90.4 µM (inactive)
same,GI50,A549,25.2 µM (inactive)
same,GI50,786-0,23.4 µM (inactive)
same,GI50,OVCAR-8,26.4 µM (inactive)
same,GI50,NCI-H460,> 39 µM (inactive)
same,GI50,RPMI-8226,24.6 µM (inactive)
same,GI50,PC-3,23.7 µM (inactive)
same,GI50,SF-539,14.8 µM (inactive)
same,GI50,SN12C,13.4 µM (inactive)
same,GI50,UO-31,20.8 µM (inactive)
same,GI50,Malme-3M,33.6 µM (inactive)
same,GI50,RXF 393,22.3 µM (inactive)
same,GI50,SF-295,18.5 µM (inactive)
same,GI50,CCRF-CEM,39.3 µM (inactive)
same,GI50,SR,28.6 µM (inactive)
same,GI50,LOX IMVI,17.2 µM (inactive)
same,GI50,HCC 2998,> 41.6 µM (inactive)
same,GI50,COLO 205,14.6 µM (inactive)
same,GI50,NCI/ADR-RES,20.7 µM (inactive)
same,GI50,IGROV-1,28.8 µM (inactive)
same,GI50,HCT-116,20.8 µM (inactive)
same,GI50,BT-549,18.2 µM (inactive)
same,GI50,U-251,22.9 µM (inactive)
same,GI50,MCF7,20.9 µM (inactive)
same,GI50,OVCAR-5,25.1 µM (inactive)
same,GI50,NCI-H23,20.5 µM (inactive)
same,GI50,SK-OV-3,37 µM (inactive)
same,GI50,TK-10,22.8 µM (inactive)
same,GI50,NCI-H522,13.2 µM (inactive)
same,GI50,SF-268,26.9 µM (inactive)
same,GI50,DU-145,30.1 µM (inactive)
same,GI50,MDA-N,23.1 µM (inactive)
same,GI50,SNB-75,19.6 µM (inactive)
same,GI50,ACHN,22.8 µM (inactive)
same,GI50,Hs-578T,17.1 µM (inactive)
CC1OC2/C=C\CC(O)C(C)(C)C3CCC(C)C4(O3)O[B-]35OC(C(=O)OC1C2)C1(OC(CCC1C)C(C)(C)C(O)C/C=C\C1CC(OC(=O)C4O3)C(C)O1)O5 (stereo unspecified),GI50,KM12,3.07 µM (inactive)
same,GI50,EKVX,2.15 µM (inactive)
same,GI50,SNB-19,2.39 µM (inactive)
same,GI50,NCI-H226,0.726 µM (active)
same,GI50,CAKI-1,7.6 µM (inactive)
same,GI50,M14,2.11 µM (inactive)
same,GI50,HL-60,1.06 µM (active)
same,GI50,T47D,2.81 µM (inactive)
same,GI50,SK-MEL-2,1.54 µM (inactive)
same,GI50,A498,2.45 µM (inactive)
same,GI50,HT-29,2.75 µM (inactive)
same,GI50,MOLT-4,1.01 µM (active)
same,GI50,MDA-MB-231,1.99 µM (inactive)
same,GI50,SW-620,2.94 µM (inactive)
same,GI50,MDA-MB-435,2.54 µM (inactive)
same,GI50,OVCAR-3,1.89 µM (inactive)
same,GI50,SK-MEL-5,2.21 µM (inactive)
same,GI50,SK-MEL-28,1.77 µM (inactive)
same,GI50,UACC-257,1.77 µM (inactive)
same,GI50,HOP-92,2.94 µM (inactive)
same,GI50,OVCAR-4,7.76 µM (inactive)
same,GI50,HCT-15,5.37 µM
same,GI50,UACC-62,2.01 µM (inactive)
same,GI50,K562,7.46 µM (inactive)
same,GI50,HOP-62,2.08 µM (inactive)
same,GI50,A549,2.55 µM (inactive)
same,GI50,786-0,2.83 µM (inactive)
same,GI50,OVCAR-8,3.13 µM (inactive)
same,GI50,NCI-H460,1.6 µM (inactive)
same,GI50,RPMI-8226,1.63 µM (inactive)
same,GI50,PC-3,2.77 µM (inactive)
same,GI50,SF-539,2.42 µM (inactive)
same,GI50,SN12C,2.69 µM (inactive)
same,GI50,UO-31,17.7 µM (inactive)
same,GI50,Malme-3M,1.86 µM (inactive)
same,GI50,RXF 393,1.87 µM (inactive)
same,GI50,SF-295,1.8 µM (inactive)
same,GI50,CCRF-CEM,0.718 µM (active)
same,GI50,SR,1.78 µM (inactive)
same,GI50,LOX IMVI,1.97 µM (inactive)
same,GI50,HCC 2998,1.66 µM (inactive)
same,GI50,COLO 205,2.03 µM (inactive)
same,GI50,NCI/ADR-RES,3.2 µM (inactive)
same,GI50,IGROV-1,13.9 µM (inactive)
same,GI50,HCT-116,2.01 µM (inactive)
same,GI50,BT-549,2.54 µM (inactive)
same,GI50,U-251,1.33 µM (inactive)
same,GI50,MCF7,2.01 µM (inactive)
same,GI50,OVCAR-5,7.45 µM (inactive)
same,GI50,NCI-H23,1.85 µM (inactive)
same,GI50,SK-OV-3,4.47 µM (inactive)
same,GI50,TK-10,2.97 µM (inactive)
same,GI50,NCI-H522,0.344 µM (active)
same,GI50,SF-268,2.02 µM (inactive)
same,GI50,DU-145,7.96 µM (inactive)
same,GI50,MDA-N,3.15 µM (inactive)
same,GI50,SNB-75,0.39 µM (active)
same,GI50,ACHN,3.45 µM (inactive)
same,GI50,Hs-578T,1.54 µM (inactive)
COC(=O)c1csc([C@@H](OC(=O)[C@H](C)[C@H](CCCC(C)(Cl)Cl)OC(=O)c2csc([C@H](O)CO)n2)C(C)C)n1,GI50,KM12,15.7 µM (inactive)
same,GI50,EKVX,17.1 µM (inactive)
same,GI50,SNB-19,13.6 µM (inactive)
same,GI50,NCI-H226,19.2 µM (inactive)
same,GI50,CAKI-1,17.7 µM (inactive)
same,GI50,M14,17.8 µM (inactive)
same,GI50,HL-60,17.9 µM (inactive)
same,GI50,T47D,20.7 µM (inactive)
same,GI50,SK-MEL-2,15.3 µM (inactive)
same,GI50,A498,18.3 µM (inactive)
same,GI50,HT-29,17.6 µM (inactive)
same,GI50,MOLT-4,16.3 µM (inactive)
same,GI50,MDA-MB-231,17.6 µM (inactive)
same,GI50,SW-620,17.9 µM (inactive)
same,GI50,MDA-MB-435,13.6 µM (inactive)
same,GI50,OVCAR-3,15 µM (inactive)
same,GI50,SK-MEL-5,17.9 µM (inactive)
same,GI50,SK-MEL-28,11.8 µM (inactive)
same,GI50,UACC-257,11 µM (inactive)
same,GI50,HOP-92,10.7 µM (inactive)
same,GI50,OVCAR-4,10 µM (inactive)
same,GI50,HCT-15,16.4 µM
same,GI50,UACC-62,11.6 µM (inactive)
same,GI50,K562,16.4 µM (inactive)
same,GI50,HOP-62,18.4 µM (inactive)
same,GI50,A549,17.9 µM (inactive)
same,GI50,786-0,14 µM (inactive)
same,GI50,OVCAR-8,4.61 µM (inactive)
same,GI50,NCI-H460,9.89 µM (inactive)
same,GI50,RPMI-8226,15.2 µM (inactive)
same,GI50,PC-3,13.6 µM (inactive)
same,GI50,SF-539,2.92 µM (inactive)
same,GI50,SN12C,1.99 µM (inactive)
same,GI50,UO-31,6.93 µM (inactive)
same,GI50,Malme-3M,17.3 µM (inactive)
same,GI50,RXF 393,1.89 µM (inactive)
same,GI50,SF-295,15.7 µM (inactive)
same,GI50,CCRF-CEM,17.2 µM (inactive)
same,GI50,SR,13.7 µM (inactive)
same,GI50,LOX IMVI,10.5 µM (inactive)
same,GI50,HCC 2998,10.2 µM (inactive)
same,GI50,COLO 205,17.8 µM (inactive)
same,GI50,NCI/ADR-RES,18.3 µM (inactive)
same,GI50,IGROV-1,11.3 µM (inactive)
same,GI50,BT-549,17.1 µM (inactive)
same,GI50,U-251,17.8 µM (inactive)
same,GI50,MCF7,18 µM (inactive)
same,GI50,OVCAR-5,15.5 µM (inactive)
same,GI50,NCI-H23,16.4 µM (inactive)
same,GI50,SK-OV-3,16.2 µM (inactive)
same,GI50,TK-10,12.4 µM (inactive)
same,GI50,NCI-H522,16.8 µM (inactive)
same,GI50,SF-268,17.7 µM (inactive)
same,GI50,DU-145,12.3 µM (inactive)
same,GI50,MDA-N,7.94 µM (inactive)
same,GI50,SNB-75,1.39 µM (inactive)
same,GI50,ACHN,13.1 µM (inactive)
same,GI50,Hs-578T,2.11 µM (inactive)
